Laboratory results: ChEMBL document CHEMBL1136068 (Bioorg Med Chem Lett, 2003)
Calls of active or inactive are those of the source. The calls are words filed in the database; no cut-off is given here.

Legend:
[1] = molecular target: T1, Progesterone receptor (Homo sapiens, UniProt P06401); assay: Effective concentration for agonist activity towards human progesterone receptor (hPR) expressed in CV-1 cells; Not active; format: functional, cell-based
T1 sequence (P06401 whole entry): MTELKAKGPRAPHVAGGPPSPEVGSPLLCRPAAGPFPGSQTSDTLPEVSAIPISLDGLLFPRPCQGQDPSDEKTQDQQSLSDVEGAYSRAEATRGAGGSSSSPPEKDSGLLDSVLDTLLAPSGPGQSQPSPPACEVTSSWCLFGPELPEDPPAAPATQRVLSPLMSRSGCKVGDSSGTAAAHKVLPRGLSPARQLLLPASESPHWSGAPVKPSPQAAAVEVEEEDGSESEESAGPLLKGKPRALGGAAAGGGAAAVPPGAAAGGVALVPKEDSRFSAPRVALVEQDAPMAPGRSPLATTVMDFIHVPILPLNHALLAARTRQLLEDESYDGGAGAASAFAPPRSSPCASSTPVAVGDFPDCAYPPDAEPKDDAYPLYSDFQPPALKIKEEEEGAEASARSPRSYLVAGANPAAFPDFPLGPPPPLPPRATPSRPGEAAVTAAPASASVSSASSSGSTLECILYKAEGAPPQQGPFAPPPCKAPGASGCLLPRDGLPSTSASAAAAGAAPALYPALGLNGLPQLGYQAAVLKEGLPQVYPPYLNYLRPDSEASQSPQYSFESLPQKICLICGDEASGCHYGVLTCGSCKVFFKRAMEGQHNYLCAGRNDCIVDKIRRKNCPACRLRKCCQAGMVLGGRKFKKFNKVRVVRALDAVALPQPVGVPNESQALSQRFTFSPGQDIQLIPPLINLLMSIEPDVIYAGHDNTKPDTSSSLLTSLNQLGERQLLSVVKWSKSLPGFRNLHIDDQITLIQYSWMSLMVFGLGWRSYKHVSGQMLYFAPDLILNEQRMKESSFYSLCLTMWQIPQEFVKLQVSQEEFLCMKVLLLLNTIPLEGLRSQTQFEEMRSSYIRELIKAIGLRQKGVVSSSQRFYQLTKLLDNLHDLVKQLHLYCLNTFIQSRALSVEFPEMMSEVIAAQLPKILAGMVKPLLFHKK

[2] = molecular target: T1, Progesterone receptor; assay: Binding affinity to human progesterone receptor
[3] = molecular target: T2, Progesterone receptor (Homo sapiens) (UniProt P06401); assay: Agonist efficacy towards human progesterone receptor (hPR) expressed in CV-1 cells; Not active; format: functional, cell-based
T2 sequence (whole entry): T1 sequence (P06401 whole entry)

[4] = molecular target: T1, Progesterone receptor; assay: Inhibitory concentration for antagonistic activity towards human progesterone receptor (hPR) using the cotransfection assay in CV-1 cells; format: functional, cell-based
[5] = molecular target: T2, Progesterone receptor (Homo sapiens); assay: Antagonistic efficacy towards human progesterone receptor (hPR) using the cotransfection assay in CV-1 cells; format: functional, cell-based
[6] = molecular target: T2, Progesterone receptor (Homo sapiens); assay: Agonist efficacy towards human progesterone receptor (hPR) using the cotransfection assay in CV-1 cells; format: functional, cell-based
[7] = molecular target: T3, Mineralocorticoid receptor (Homo sapiens, UniProt P08235); assay: Antagonist activity at mineralocorticoid receptor (hMR); format: functional
T3 sequence (P08235 whole entry): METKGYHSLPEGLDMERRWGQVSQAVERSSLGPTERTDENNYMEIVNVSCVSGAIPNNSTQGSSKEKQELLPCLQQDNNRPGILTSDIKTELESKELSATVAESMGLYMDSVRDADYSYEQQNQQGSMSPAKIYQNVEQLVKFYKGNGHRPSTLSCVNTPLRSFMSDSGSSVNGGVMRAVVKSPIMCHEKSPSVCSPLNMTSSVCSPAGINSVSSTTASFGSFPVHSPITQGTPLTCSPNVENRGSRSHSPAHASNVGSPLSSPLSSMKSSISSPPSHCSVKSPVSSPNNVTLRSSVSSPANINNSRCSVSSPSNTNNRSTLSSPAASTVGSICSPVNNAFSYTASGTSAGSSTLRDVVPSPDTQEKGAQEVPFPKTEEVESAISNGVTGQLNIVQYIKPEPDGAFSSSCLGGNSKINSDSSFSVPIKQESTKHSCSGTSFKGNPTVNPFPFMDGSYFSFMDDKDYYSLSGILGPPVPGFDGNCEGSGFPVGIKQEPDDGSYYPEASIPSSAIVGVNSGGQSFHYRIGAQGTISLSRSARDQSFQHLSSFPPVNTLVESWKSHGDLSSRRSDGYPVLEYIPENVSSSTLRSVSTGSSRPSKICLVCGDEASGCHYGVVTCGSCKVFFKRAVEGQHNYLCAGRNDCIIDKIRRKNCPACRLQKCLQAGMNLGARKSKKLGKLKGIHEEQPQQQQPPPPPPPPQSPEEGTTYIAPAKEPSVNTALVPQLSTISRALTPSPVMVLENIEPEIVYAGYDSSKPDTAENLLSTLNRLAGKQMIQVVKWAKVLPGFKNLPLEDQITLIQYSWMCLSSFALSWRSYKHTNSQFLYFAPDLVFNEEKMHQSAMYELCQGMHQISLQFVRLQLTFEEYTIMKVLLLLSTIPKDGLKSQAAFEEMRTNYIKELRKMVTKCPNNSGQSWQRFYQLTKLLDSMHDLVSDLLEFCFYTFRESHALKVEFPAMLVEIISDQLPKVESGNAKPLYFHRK

[8] = molecular target: T4, Mineralocorticoid receptor (Homo sapiens) (UniProt P08235); assay: Antagonist efficacy at mineralocorticoid receptor (hMR); format: functional
T4 sequence (whole entry): T3 sequence (P08235 whole entry)

[9] = molecular target: T1, Progesterone receptor; assay: Effective concentration for agonist activity towards human progesterone receptor (hPR) using the cotransfection assay in CV-1 cells; format: functional, cell-based
[10] = molecular target: T2, Progesterone receptor (Homo sapiens); assay: Antagonistic efficacy towards human progesterone receptor (hPR) using the cotransfection assay in CV-1 cells; Not active; format: functional, cell-based
[11] = molecular target: T5, Glucocorticoid receptor (Homo sapiens, UniProt P04150); assay: Antagonist activity at glucocorticoid receptor; format: functional
T5 sequence (P04150 whole entry): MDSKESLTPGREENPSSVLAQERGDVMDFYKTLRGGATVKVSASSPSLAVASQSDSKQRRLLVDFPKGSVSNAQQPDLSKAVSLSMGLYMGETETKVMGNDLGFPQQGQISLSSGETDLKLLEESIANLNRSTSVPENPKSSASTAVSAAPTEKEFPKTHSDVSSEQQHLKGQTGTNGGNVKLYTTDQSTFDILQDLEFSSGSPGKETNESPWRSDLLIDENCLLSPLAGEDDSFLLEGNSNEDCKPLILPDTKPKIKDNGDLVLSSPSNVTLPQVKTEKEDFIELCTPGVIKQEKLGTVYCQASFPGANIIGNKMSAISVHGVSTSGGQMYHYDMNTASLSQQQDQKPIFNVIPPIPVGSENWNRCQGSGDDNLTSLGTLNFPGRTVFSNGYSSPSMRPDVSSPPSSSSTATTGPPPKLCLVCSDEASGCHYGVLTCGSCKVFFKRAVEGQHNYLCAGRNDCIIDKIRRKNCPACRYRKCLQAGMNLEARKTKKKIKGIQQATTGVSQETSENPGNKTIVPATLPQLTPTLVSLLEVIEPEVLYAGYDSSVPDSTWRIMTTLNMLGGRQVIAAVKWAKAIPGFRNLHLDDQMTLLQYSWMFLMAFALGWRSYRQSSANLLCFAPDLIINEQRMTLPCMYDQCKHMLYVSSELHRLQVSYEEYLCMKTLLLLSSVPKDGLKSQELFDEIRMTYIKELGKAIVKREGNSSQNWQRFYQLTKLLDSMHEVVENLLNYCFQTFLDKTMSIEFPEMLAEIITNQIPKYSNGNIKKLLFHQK

[12] = molecular target: T1, Progesterone receptor; assay: Inhibitory concentration for antagonistic activity towards human progesterone receptor (hPR) using the cotransfection assay in CV-1 cells; Not active; format: functional, cell-based
[13] = molecular target: T6, Androgen receptor (Homo sapiens, UniProt P10275); assay: Antagonist activity against human Androgen receptor; format: functional
T6 sequence (P10275 whole entry): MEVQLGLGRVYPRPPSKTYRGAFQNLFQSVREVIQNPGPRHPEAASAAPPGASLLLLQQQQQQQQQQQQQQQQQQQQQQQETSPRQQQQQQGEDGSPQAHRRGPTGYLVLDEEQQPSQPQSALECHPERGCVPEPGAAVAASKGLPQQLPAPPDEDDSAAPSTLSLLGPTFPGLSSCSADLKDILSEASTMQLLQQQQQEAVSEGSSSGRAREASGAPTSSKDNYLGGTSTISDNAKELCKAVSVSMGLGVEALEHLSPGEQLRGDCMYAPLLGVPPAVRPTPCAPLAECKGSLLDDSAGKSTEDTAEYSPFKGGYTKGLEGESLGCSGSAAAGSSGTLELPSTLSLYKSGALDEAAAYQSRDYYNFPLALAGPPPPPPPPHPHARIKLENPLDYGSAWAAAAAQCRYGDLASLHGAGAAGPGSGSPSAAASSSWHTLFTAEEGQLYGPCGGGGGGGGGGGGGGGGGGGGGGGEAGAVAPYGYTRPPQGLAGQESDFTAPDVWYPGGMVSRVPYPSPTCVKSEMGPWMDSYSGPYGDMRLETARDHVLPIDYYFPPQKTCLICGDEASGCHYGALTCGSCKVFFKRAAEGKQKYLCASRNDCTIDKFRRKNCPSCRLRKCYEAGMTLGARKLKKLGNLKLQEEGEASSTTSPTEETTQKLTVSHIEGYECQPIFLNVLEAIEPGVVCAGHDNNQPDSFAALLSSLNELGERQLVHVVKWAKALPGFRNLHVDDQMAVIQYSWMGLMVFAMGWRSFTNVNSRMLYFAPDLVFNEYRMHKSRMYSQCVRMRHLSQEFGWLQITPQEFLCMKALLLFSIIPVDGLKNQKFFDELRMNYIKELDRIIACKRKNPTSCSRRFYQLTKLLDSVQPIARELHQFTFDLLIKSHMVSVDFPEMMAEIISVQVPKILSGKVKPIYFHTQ

[14] = molecular target: T1, Progesterone receptor; assay: Inhibition of antagonist binding to human progesterone receptor (hPR); Not active

EC50 [1]	Ki [2] [nM]	Efficacy [3]	IC50 [4] [nM]	Efficacy [5] [%]	Efficacy [6] [%]	EC50 [9] [nM]	Efficacy [10]	IC50 [12]	IC50 [14]	SMILES	IC50 [7] [nM]	Efficacy [8] [%]	IC50 [11] [nM]	IC50 [13] [nM]
Not Active	> 100	inactive	124	91	–	–	–	–	–	CC(=O)/C=C1\Oc2ccc(F)cc2-c2ccc3c(c21)C(C)=CC(C)(C)N3	–	–	–	–
–	3.1	–	–	–	90	28	inactive	–	Not Active	CCC/C=C1\Oc2ccc(F)cc2-c2ccc3c(c21)C(C)=CC(C)(C)N3	–	–	–	–
–	–	–	–	–	–	–	inactive	Not Active	–	CC1=CC(C)(C)Nc2ccc3c(c21)/C(=C/c1ccccc1C)Oc1ccccc1-3	–	–	–	–
–	26	–	–	–	122	29	inactive	Not Active	–	C=C(/C=C1\Oc2ccc(F)cc2-c2ccc3c(c21)C(C)=CC(C)(C)N3)C(C)C	–	–	–	–
–	16.7	–	980	38	64	27	–	–	–	CC/C(C)=C1/Oc2ccc(F)cc2-c2ccc3c(c21)C(C)=CC(C)(C)N3	–	–	–	–
Not Active	> 100	inactive	1930	90	–	–	–	–	–	CC1=CC(C)(C)Nc2ccc3c(c21)C(=C(c1ccccc1)c1ccccc1)Oc1ccc(F)cc1-3	–	–	–	–
–	45	–	65	75	70	2700	–	–	–	CC1=CC(C)(C)Nc2ccc3c(c21)/C(=C/C#N)Oc1ccc(F)cc1-3	–	–	–	–
–	6.1	–	–	–	87	1000	inactive	Not Active	–	C=C1Oc2ccc(F)cc2-c2ccc3c(c21)C(C)=CC(C)(C)N3	–	–	–	–
–	> 100	–	800	70	28	48	–	–	–	CC1=CC(C)(C)Nc2ccc3c(c21)/C(=C/C1CCCCC1)Oc1ccc(F)cc1-3	–	–	–	–
Not Active	> 100	inactive	243	97	–	–	–	–	–	CC1=CC(C)(C)Nc2ccc3c(c21)/C(=C/C=O)Oc1ccc(F)cc1-3	–	–	–	–

SMILES	EC50 [1]	Ki [2] [nM]	Efficacy [3]	IC50 [4] [nM]	Efficacy [5] [%]	Efficacy [6] [%]	EC50 [9] [nM]	Efficacy [10]	IC50 [12]	IC50 [14]	IC50 [7] [nM]	Efficacy [8] [%]	IC50 [11] [nM]	IC50 [13] [nM]
CC1=CC(C)(C)Nc2ccc3c(c21)C(=C1SCCCS1)Oc1ccc(F)cc1-3	–	–	–	–	–	151	2.1	inactive	Not Active	–	681	92	146	180
